Data taken from patent US20140213475A1, “METHODS OF DIAGNOSING CANCER USING EPIGENETIC BIOMARKERS” (University of Massachusetts, priority 2011, published 2014).

Columns and labels:
[1] = system: normal human fibroblasts (Tig-1); experiment: BMI-1/Ring1B (PRC1) CAP body formation in normal fibroblasts after treatment with DNA demethylating agent, immunofluorescence and 1q12 DNA FISH; type: cell-based; conditions: for number of CAP positive cells: 0.2 ug/ml added fresh daily
Description: (§1) FIGS. 6A-6E. […] FIG. 6C is a photomicrograph showing that longer treatment (8 days total) results in aberrant expression of Sat II RNA from other loci that are not associated with BMI-1 bodies.
(§2) Importantly, aberrant Sat II RNA foci also appeared with longer term 5-aza-2d treatment, and importantly from sites distinct from 1q12 bearing the accumulated BMI-1 bodies (FIG. 6C). Aberrant Sat II expression was not seen in control or 1 day treated cells, was rare on day 3 and in ˜5-10% of cells by day 8. These findings reveal significant mechanistic insight into why PcG proteins so markedly accumulate at 1q12 in cancer but not normal cells, and provide important evidence of a link between two intensely studied areas of cancer epigenetics, DNA methylation and polycomb proteins.
(§3) Twenty two cell lines were examined in this study (list in Supplement), and grown in conditions recommended by suppliers (ATCC, Cambrex, and Coriell). 5-azacytidine (6 mM) and 5-aza-2′deoxycytidine (0.2 ug/ml) was added fresh daily to asynchronously growing cultures and refreshed every day. Our standard fixation protocols have been detailed previously (Johnson et al., 1991; Tam et al., 2002), and summarized in the Supplement. Human effusions were fixed as for cultured cells and tissue blocks were cryosectioned onto cold glass slides (HistoBond+), and stored at −80 briefly until fixation. Of four fixations tested (Supplement) the one that gave best results was brief triton extraction followed by paraformaldehyde fixation and storage in ETOH.
Simultaneous DNA/RNA and antibody detection: Most antibodies were used prior to RNA or DNA hybridization. Briefly, slides were incubated in the appropriate dilution of primary antibody in 1% BSA, 1xPBS and 1 U/ul RNasin, for 1 hour at 37 C. Slides were washed, and immunodetection was performed using 1:500 dilution of appropriately conjugated (Alexa 488 or Alexa 594, Invitrogen) secondary (anti-goat, mouse or rabbit) antibody, in 1×PBS with 1% BSA. The antibody signal is fixed in 4% paraformaldehyde for 10 min prior to hybridization (performed as detailed above), and all slides were counter stained with DAPI. Vectashield (Vector Labs) was used as mounting media for all fluorescence imaging.

[2] = system: normal human fibroblasts (Tig-1); experiment: Aberrant Sat II RNA foci in normal fibroblasts after treatment with DNA demethylating agent, RNA FISH; type: cell-based
Description: as §1, §2, §3
Sat2-24 nt LNA was used for most images unless otherwise indicated. Several methods of Sat 2 probe labeling and detection were tested (see below). RNA-specific hybridization was carried out under non-denaturing conditions where the DNA was not accessible. Oligos were usually hybridized at 15% formamide conditions, but were also compared to higher stringency hybridizations at 40% and 50% formamide. […]

Sat II on Chromosome 1 = conditions: Ji et al., 1997; cited from earlier work

## Nc1ncn([C@H]2C[C@H](O)[C@@H](CO)O2)c(=O)n1 [5-aza-2d, 5-aza-2′-deoxycytidine]
[1]; Day 1 of treatment
  number of CAP bodies per cell: ~2
  number of CAP positive cells: 15%
[1]; Day 3 of treatment
  number of CAP positive cells: 52%
[1]; Day 8 of treatment
  number of CAP bodies per cell: ~4
  number of CAP positive cells: 80%
[2]; 1 day treated cells
  aberrant Sat II expression (Sat II RNA foci): not seen
[2]; day 3 of treatment
  aberrant Sat II expression (Sat II RNA foci): rare
[2]; day 8 of treatment
  aberrant Sat II expression (Sat II RNA foci), cells positive: 5-10 % of cells
Sat II on Chromosome 1
  demethylation of Sat II on Chromosome 1: effectively demethylate Sat II on Chromosome 1
